According to the NIST ThermoML archive (doi:10.1016/j.jct.2015.05.006):

Tests used:
[1] = xn = mol fraction of the nth substance listed; settings: Liquid, Vibrating tube method
[2] = relative permittivity at various frequencies (dimensionless); xn = mol fraction of the nth substance listed; settings: Liquid, Frequency=1 MHz, Parallel plate capacitor

COCCOC [1,2-dimethoxyethane] + CCCCCCCC
97.1 kPa
Settings | mass density, [1] [kg/m3] | relative permittivity, [2]
288.15 K, x2 = 0 | 872.06 | 7.41
288.15 K, x2 = 0.0493 | 857.73 | –
288.15 K, x2 = 0.0502 | – | 6.79
288.15 K, x2 = 0.1011 | 843.79 | –
288.15 K, x2 = 0.1035 | – | 6.21
288.15 K, x2 = 0.2005 | – | 5.31
288.15 K, x2 = 0.2032 | 819.39 | –
288.15 K, x2 = 0.3015 | – | 4.54
288.15 K, x2 = 0.3036 | 798.48 | –
288.15 K, x2 = 0.4019 | 780.49 | –
288.15 K, x2 = 0.4024 | – | 3.92
288.15 K, x2 = 0.4964 | – | 3.45
288.15 K, x2 = 0.4992 | 764.69 | –
288.15 K, x2 = 0.6022 | – | 3.01
288.15 K, x2 = 0.6046 | 749.52 | –
288.15 K, x2 = 0.7031 | – | 2.67
288.15 K, x2 = 0.707 | 736.47 | –
288.15 K, x2 = 0.8035 | – | 2.38
288.15 K, x2 = 0.8044 | 725.4 | –
288.15 K, x2 = 0.9038 | – | 2.15
288.15 K, x2 = 0.9082 | 714.88 | –
288.15 K, x2 = 0.9495 | 711.04 | –
288.15 K, x2 = 0.9511 | – | 2.06
298.15 K, x2 = 0 | 861.17 | 7.07
298.15 K, x2 = 0.0487 | – | 6.5
298.15 K, x2 = 0.0493 | 847.03 | –
298.15 K, x2 = 0.1004 | – | 5.97
298.15 K, x2 = 0.1011 | 833.26 | –
298.15 K, x2 = 0.2032 | 809.21 | –
298.15 K, x2 = 0.204 | – | 5.07
298.15 K, x2 = 0.3008 | – | 4.39
298.15 K, x2 = 0.3036 | 788.62 | –
298.15 K, x2 = 0.4019 | 770.94 | –
298.15 K, x2 = 0.4064 | – | 3.78
298.15 K, x2 = 0.4992 | 755.41 | –
298.15 K, x2 = 0.5043 | – | 3.32
298.15 K, x2 = 0.6046 | 740.56 | 2.93
298.15 K, x2 = 0.7038 | – | 2.62
298.15 K, x2 = 0.707 | 727.79 | –
298.15 K, x2 = 0.8039 | – | 2.35
298.15 K, x2 = 0.8044 | 716.95 | –
298.15 K, x2 = 0.9008 | – | 2.14
298.15 K, x2 = 0.9082 | 706.67 | –
298.15 K, x2 = 0.9495 | 702.91 | –
298.15 K, x2 = 0.9516 | – | 2.04
308.15 K, x2 = 0 | 850.13 | 6.75
308.15 K, x2 = 0.0493 | 836.17 | –
308.15 K, x2 = 0.0513 | – | 6.2
308.15 K, x2 = 0.1011 | 822.58 | –
308.15 K, x2 = 0.1017 | – | 5.71
308.15 K, x2 = 0.203 | – | 4.88
308.15 K, x2 = 0.2032 | 798.9 | –
308.15 K, x2 = 0.3025 | – | 4.23
308.15 K, x2 = 0.3036 | 778.63 | –
308.15 K, x2 = 0.4019 | 761.25 | –
308.15 K, x2 = 0.4021 | – | 3.69
308.15 K, x2 = 0.4992 | 746.01 | –
308.15 K, x2 = 0.5006 | – | 3.25
308.15 K, x2 = 0.6029 | – | 2.87
308.15 K, x2 = 0.6046 | 731.48 | –
308.15 K, x2 = 0.7028 | – | 2.57
308.15 K, x2 = 0.707 | 718.98 | –
308.15 K, x2 = 0.802 | – | 2.32
308.15 K, x2 = 0.8044 | 708.4 | –
308.15 K, x2 = 0.9027 | – | 2.11
308.15 K, x2 = 0.9082 | 698.35 | –
308.15 K, x2 = 0.9493 | – | 2.03
308.15 K, x2 = 0.9495 | 694.71 | –

COCCOC [1,2-dimethoxyethane] + CCCCCC
95.2 kPa
Settings | mass density, [1] [kg/m3] | relative permittivity, [2]
288.15 K, x2 = 0 | 872.06 | 7.41
288.15 K, x2 = 0.0501 | 857.87 | –
288.15 K, x2 = 0.0513 | – | 6.89
288.15 K, x2 = 0.0904 | – | 6.46
288.15 K, x2 = 0.1049 | 842.87 | –
288.15 K, x2 = 0.1999 | – | 5.58
288.15 K, x2 = 0.2992 | – | 4.85
288.15 K, x2 = 0.2999 | 794.19 | –
288.15 K, x2 = 0.4004 | – | 4.19
288.15 K, x2 = 0.4059 | 770.33 | –
288.15 K, x2 = 0.4961 | 751.31 | –
288.15 K, x2 = 0.4983 | – | 3.65
288.15 K, x2 = 0.6001 | – | 3.17
288.15 K, x2 = 0.6054 | 729.6 | –
288.15 K, x2 = 0.694 | 713.16 | –
288.15 K, x2 = 0.7004 | – | 2.77
288.15 K, x2 = 0.7916 | 696.41 | –
288.15 K, x2 = 0.8057 | – | 2.41
288.15 K, x2 = 0.9022 | – | 2.14
288.15 K, x2 = 0.9035 | 678.43 | –
288.15 K, x2 = 0.9509 | – | 2.02
288.15 K, x2 = 0.9533 | 670.87 | –
298.15 K, x2 = 0 | 861.17 | 7.07
298.15 K, x2 = 0.0459 | – | 6.61
298.15 K, x2 = 0.0495 | 846.99 | –
298.15 K, x2 = 0.0955 | – | 6.19
298.15 K, x2 = 0.1011 | 833.13 | –
298.15 K, x2 = 0.2009 | 807.1 | –
298.15 K, x2 = 0.2013 | – | 5.36
298.15 K, x2 = 0.2992 | – | 4.67
298.15 K, x2 = 0.3031 | 782.87 | –
298.15 K, x2 = 0.398 | – | 4.07
298.15 K, x2 = 0.4027 | 760.92 | –
298.15 K, x2 = 0.4977 | 740.86 | –
298.15 K, x2 = 0.4984 | – | 3.53
298.15 K, x2 = 0.5959 | 721.71 | –
298.15 K, x2 = 0.6014 | – | 3.08
298.15 K, x2 = 0.6972 | 703.06 | –
298.15 K, x2 = 0.7019 | – | 2.7
298.15 K, x2 = 0.8016 | – | 2.38
298.15 K, x2 = 0.8051 | 684.57 | –
298.15 K, x2 = 0.8985 | 670 | –
298.15 K, x2 = 0.9031 | – | 2.11
298.15 K, x2 = 0.9477 | – | 2.01
308.15 K, x2 = 0 | 850.13 | 6.75
308.15 K, x2 = 0.0457 | 837.34 | –
308.15 K, x2 = 0.0494 | – | 6.3
308.15 K, x2 = 0.0927 | 824.63 | –
308.15 K, x2 = 0.0967 | – | 5.9
308.15 K, x2 = 0.1938 | – | 5.18
308.15 K, x2 = 0.2001 | 797.09 | –
308.15 K, x2 = 0.2984 | 773.76 | –
308.15 K, x2 = 0.3011 | – | 4.47
308.15 K, x2 = 0.3939 | 752.46 | –
308.15 K, x2 = 0.4025 | – | 3.91
308.15 K, x2 = 0.4989 | – | 3.44
308.15 K, x2 = 0.5082 | 728.75 | –
308.15 K, x2 = 0.5955 | 711.88 | –
308.15 K, x2 = 0.6018 | – | 3
308.15 K, x2 = 0.6927 | 694.24 | –
308.15 K, x2 = 0.699 | – | 2.66
308.15 K, x2 = 0.7982 | – | 2.36
308.15 K, x2 = 0.8036 | 675.37 | –
308.15 K, x2 = 0.901 | – | 2.09
308.15 K, x2 = 0.9023 | 660.16 | –
308.15 K, x2 = 0.9506 | – | 1.99
308.15 K, x2 = 0.9509 | 653.01 | –
